Assay results as given in the supplement of paper PMC10307832.

Assays:
Experiment in all cases: relative viability (nuclei count vs DMSO), 5 days (fraction); higher = more cells survive
[1] = compound: Cn1cncc1[C@@](N)(c1ccc(Cl)cc1)c1ccc2c(c1)c(-c1cccc(Cl)c1)cc(=O)n2C [Tipifarnib] + CC(=O)c1c(C)c2cnc(Nc3ccc(N4CCNCC4)cn3)nc2n(C2CCCC2)c1=O [Palbociclib] (partner 0.5 µM)
Outline: (§1)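 Lung cancer cell lines were pin-tool dosed in 1536-well plates on the day after seeding, with either a lone drug or a fixed anchor-drug dose plus five library-drug doses (not always all listed) in √10 steps. Nuclei were counted on 4× images after 5 days. Relative viability is the ratio of treated-well to vehicle-well nuclei counts, with each value a median of duplicate plates.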

[2] = compound: Cn1cncc1[C@@](N)(c1ccc(Cl)cc1)c1ccc2c(c1)c(-c1cccc(Cl)c1)cc(=O)n2C [Tipifarnib] + Cc1nc(Nc2ncc(C(=O)Nc3c(C)cccc3Cl)s2)cc(N2CCN(CCO)CC2)n1 [Dasatinib] (partner 0.075 µM)
Outline: as §1

[3] = compound: Cn1cncc1[C@@](N)(c1ccc(Cl)cc1)c1ccc2c(c1)c(-c1cccc(Cl)c1)cc(=O)n2C [Tipifarnib] + CC(C)C[C@H](NC(=O)[C@H](Cc1ccccc1)NC(=O)c1cnccn1)B(O)O [Bortezomib] (partner 0.002 µM)
Outline: as §1

[4] = compound: Cn1cncc1[C@@](N)(c1ccc(Cl)cc1)c1ccc2c(c1)c(-c1cccc(Cl)c1)cc(=O)n2C [Tipifarnib] + CCNC(=O)c1noc(-c2cc(C(C)C)c(O)cc2O)c1-c1ccc(CN2CCOCC2)cc1 [Luminespib] (partner 0.01 µM)
Outline: as §1

| Cell Line | relative viability ([1]; first compound 0.01 µM) | relative viability ([1]; first compound 0.03162 µM) | relative viability ([1]; first compound 0.1 µM) | relative viability ([1]; first compound 0.3162 µM) | relative viability ([1]; first compound 1 µM) | relative viability ([2]; first compound 0.01 µM) | relative viability ([2]; first compound 0.03162 µM) | relative viability ([2]; first compound 0.1 µM) | relative viability ([2]; first compound 0.3162 µM) | relative viability ([2]; first compound 1 µM) | relative viability ([3]; first compound 0.01 µM) | relative viability ([3]; first compound 0.03162 µM) | relative viability ([3]; first compound 0.1 µM) | relative viability ([3]; first compound 0.3162 µM) | relative viability ([3]; first compound 1 µM) | relative viability ([4]; first compound 0.01 µM) | relative viability ([4]; first compound 0.03162 µM) | relative viability ([4]; first compound 0.1 µM) | relative viability ([4]; first compound 0.3162 µM) | relative viability ([4]; first compound 1 µM) |
| --- | --- | --- | --- | --- | --- | --- | --- | --- | --- | --- | --- | --- | --- | --- | --- | --- | --- | --- | --- | --- |
| HCC-78 | 0.478 | 0.54 | 0.558 | 0.454 | 0.456 | 0.327 | 0.428 | 0.273 | 0.371 | 0.266 | 0.606 | 0.45 | 0.46 | 0.469 | 0.462 | – | – | – | – | – |
| NCI-H2085 | 0.492 | 0.431 | 0.472 | 0.413 | 0.506 | 0.296 | 0.264 | 0.262 | 0.25 | 0.288 | 1.15 | 0.729 | 0.695 | 0.601 | 0.72 | 0.406 | 0.317 | 0.34 | 0.295 | 0.34 |
| PC-14 | 0.42 | 0.346 | 0.226 | 0.15 | 0.163 | 0.261 | 0.206 | 0.191 | 0.128 | 0.093 | 1 | 0.873 | 0.555 | 0.453 | 0.464 | 0.221 | 0.2 | 0.149 | 0.132 | 0.131 |
| NCI-H2342 | 0.535 | 0.493 | 0.555 | 0.499 | 0.488 | 0.332 | 0.337 | 0.272 | 0.331 | 0.267 | – | – | – | – | – | 0.689 | 0.669 | 0.635 | 0.569 | 0.51 |
| A-427 | 0.527 | 0.535 | 0.477 | 0.448 | 0.466 | 0.753 | 0.719 | 0.598 | 0.494 | 0.326 | 0.987 | 0.941 | 0.964 | 0.856 | 0.634 | 0.828 | 0.877 | 0.849 | 0.691 | 0.548 |
| H3255 | 0.331 | 0.276 | 0.27 | 0.287 | 0.258 | 0.3 | 0.375 | 0.421 | 0.463 | 0.344 | 0.622 | 0.647 | 0.554 | 0.561 | 0.344 | 1.13 | 0.873 | 0.846 | 0.654 | 0.53 |
| HCC-44 | 0.952 | 0.921 | 0.945 | 0.92 | 0.926 | – | – | – | – | – | 0.87 | 0.684 | 0.78 | 0.609 | 0.461 | 0.98 | 0.93 | 0.899 | 0.839 | 0.855 |
| NCI-H1734 | 0.353 | 0.327 | 0.323 | 0.298 | 0.261 | 0.465 | 0.389 | 0.347 | 0.274 | 0.22 | 0.953 | 0.764 | 0.724 | 0.502 | 0.385 | 0.198 | 0.147 | 0.171 | 0.168 | 0.164 |
| NCI-H2228 | 0.971 | 0.599 | 0.353 | 0.551 | 0.29 | 0.531 | 0.52 | 0.456 | 0.266 | 0.184 | 1.2 | 0.615 | 0.727 | 0.577 | 0.404 | 0.126 | 0.126 | 0.165 | 0.145 | 0.157 |
| ABC-1 | 0.733 | 0.689 | 0.694 | 0.639 | 0.604 | 0.608 | – | 0.567 | 0.483 | 0.473 | 0.31 | – | 0.212 | 0.253 | 0.291 | 0.914 | – | 0.321 | 0.347 | 0.278 |
| COR-L23 | 0.302 | 0.222 | 0.198 | 0.153 | 0.173 | 0.59 | 0.406 | 0.365 | 0.264 | 0.2 | 0.914 | 0.647 | 0.708 | 0.501 | 0.486 | 0.814 | 0.568 | 0.511 | 0.344 | 0.438 |
| NCI-H358 | 0.152 | 0.127 | 0.118 | 0.129 | 0.144 | 0.142 | 0.224 | 0.157 | 0.169 | 0.155 | – | – | – | – | – | 0.246 | 0.297 | 0.212 | 0.212 | 0.214 |
| EBC-1 | – | – | – | – | – | – | – | – | – | – | 0.46 | 0.356 | 0.359 | 0.295 | 0.309 | – | – | – | – | – |
| NCI-H596 | – | – | – | – | – | 0.612 | 0.653 | 0.527 | 0.423 | 0.384 | 1.05 | 1.12 | 1.17 | 0.913 | 0.699 | 1.08 | 0.796 | 0.849 | 0.828 | 0.63 |
| SK-MES-1 | 0.337 | 0.3 | 0.304 | 0.245 | 0.3 | 0.44 | 0.341 | 0.337 | 0.18 | 0.249 | – | – | – | – | – | 0.679 | 0.606 | 0.675 | 0.373 | 0.348 |
| NCI-H1703 | – | – | – | – | – | – | – | – | – | – | 0.296 | 0.262 | 0.304 | 0.195 | 0.186 | – | – | – | – | – |
| NCI-H1944 | 0.324 | 0.31 | 0.288 | 0.28 | 0.273 | 0.213 | 0.173 | 0.161 | 0.17 | 0.169 | – | – | – | – | – | 0.641 | 0.657 | 0.363 | 0.372 | 0.393 |
| NCI-H1563 | – | – | – | – | – | 0.44 | 0.53 | 0.453 | 0.489 | 0.387 | 0.996 | 0.881 | 0.87 | 0.871 | 0.748 | 0.491 | 0.558 | 0.538 | 0.519 | 0.526 |
| NCI-H1395 | 0.646 | 0.617 | 0.591 | 0.503 | 0.5 | 0.421 | 0.348 | 0.342 | 0.34 | 0.381 | – | – | – | – | – | 0.776 | 0.72 | 0.711 | 0.446 | 0.452 |
| NCI-H2170 | 0.362 | 0.377 | 0.305 | 0.246 | 0.27 | 0.688 | 0.805 | 0.601 | 0.636 | 0.462 | – | – | – | – | – | 0.406 | 0.555 | 0.619 | 0.282 | 0.691 |
